Test results published in patent publication US10435642B2, “Ionic liquids containing symmetric quaternary phosphonium cations and phosphorus-containing anions, and their use as lubricant additives” (UT-Battelle, LLC, priority 2014, dated 2019).

Key:
[1] = Density measurement of ionic liquids; format: physicochemical; settings: neat ionic liquid
Protocol: (§1) Density and Viscosity Measurements
(§2) The density and viscosity of [P8888][DEHP] were measured and compared with those of [P66614][DEHP] and [P44414][DEHP].

[2] = Viscosity measurement of ionic liquids; format: physicochemical
Protocol: as §1, §2

[3] = Corrosion test: droplet of ionic liquid on grey cast iron; settings: observation in the corrosion test
Text: A droplet of each IL was placed on the surface of a piece of grey cast iron.

[4] = Thermogravimetric analysis (TGA) thermal stability in air; format: physicochemical
Text: ZDDP, when decomposed, left about a 20% solid residue (“ash”) because of its zinc content. In contrast, all decomposition products of the ionic liquids were gaseous, thus confirming their “ashless” nature.

Row | Substance | ρ (density) [1] [g/cc] | η (viscosity) 40° C. [2] [cP] | η (viscosity) 100° C. [2] [cP] | Oil-solubility in ExxonMobil PAO 4 cSt base oil (ExxonMobil PAO 4 cSt base oil) [wt %] | Hydrophobicity compared to the other ionic liquids [3] | Oil-solubility in Chevron SAE 10 W base oil (Chevron SAE 10 W base oil) [wt %] | Oil-solubility in Shell GTL 4 cSt base oil (Shell GTL 4 cSt base oil) [wt %] | Solid residue (ash) after decomposition [4] [%]
1 | tetraoctylphosphonium bis(2-ethylhexyl)phosphate [[P8888][DEHP]] | 0.86 | 608 | 68 | >50 | – | – | – | –
2 | tributyltetradecylphosphonium bis(2-ethylhexyl)phosphate [[P44414][DEHP]] | 0.88 | 252 | 25 | – | lower hydrophobicity | <1 | <1 | –
3 | trihexyltetradecylphosphonium bis(2-ethylhexyl)phosphate [[P66614][DEHP]] | 0.91 | 390 | 45 | – | – | – | – | –
4 | zinc dialkyldithiophosphate [ZDDP] | – | – | – | – | – | – | – | ~20
